Data from patent publication US9040523B2, “Antifungal 5,6-dihydro-4H-pyrrolo[1,2-α][1,4]-benzodiazepines and 6H-pyrrolo[1,2-α][1,4]benzodiazepines substituted with benzene derivatives” (JANSSEN PHARMACEUTICA NV, priority 2010, dated 2015).

Key:
Cytochrome P450 2D6 = Cytochrome P450 2D6 (Homo sapiens, UniProt P10635); test: Human liver microsomal cytochrome P450 cocktail inhibition assay, Protocol C; settings: 2D6_Dextro pIC50, human liver microsomes 0.2 mg/ml; probe dextromethorphan 3 microM
Cytochrome P450 1A2 = molecular target: T1, Cytochrome P450 1A2 (Homo sapiens, UniProt P05177); test: as above
T1 sequence (P05177 1-516): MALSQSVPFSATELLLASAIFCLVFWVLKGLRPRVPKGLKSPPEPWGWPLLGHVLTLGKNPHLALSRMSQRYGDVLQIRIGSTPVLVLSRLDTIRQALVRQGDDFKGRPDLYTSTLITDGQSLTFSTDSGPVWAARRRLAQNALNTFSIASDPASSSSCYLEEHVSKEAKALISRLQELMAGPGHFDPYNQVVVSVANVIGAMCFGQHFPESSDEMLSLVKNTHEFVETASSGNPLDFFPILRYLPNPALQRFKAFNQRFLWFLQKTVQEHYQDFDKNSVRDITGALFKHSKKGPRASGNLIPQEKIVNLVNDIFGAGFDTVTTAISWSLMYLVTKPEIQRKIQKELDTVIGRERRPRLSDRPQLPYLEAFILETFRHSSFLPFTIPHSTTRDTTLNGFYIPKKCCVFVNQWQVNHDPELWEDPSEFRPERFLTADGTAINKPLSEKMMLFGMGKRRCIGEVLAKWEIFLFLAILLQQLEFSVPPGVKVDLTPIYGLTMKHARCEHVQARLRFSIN

Cytochrome P450 2C19 = Cytochrome P450 2C19 (Homo sapiens, UniProt P33261); test: as above; settings: 2C19_S-Meph pIC50, human liver microsomes 0.2 mg/ml; probe S-mephenytoin 30 microM
Sequence of Cytochrome P450 2C19 (P33261 whole entry): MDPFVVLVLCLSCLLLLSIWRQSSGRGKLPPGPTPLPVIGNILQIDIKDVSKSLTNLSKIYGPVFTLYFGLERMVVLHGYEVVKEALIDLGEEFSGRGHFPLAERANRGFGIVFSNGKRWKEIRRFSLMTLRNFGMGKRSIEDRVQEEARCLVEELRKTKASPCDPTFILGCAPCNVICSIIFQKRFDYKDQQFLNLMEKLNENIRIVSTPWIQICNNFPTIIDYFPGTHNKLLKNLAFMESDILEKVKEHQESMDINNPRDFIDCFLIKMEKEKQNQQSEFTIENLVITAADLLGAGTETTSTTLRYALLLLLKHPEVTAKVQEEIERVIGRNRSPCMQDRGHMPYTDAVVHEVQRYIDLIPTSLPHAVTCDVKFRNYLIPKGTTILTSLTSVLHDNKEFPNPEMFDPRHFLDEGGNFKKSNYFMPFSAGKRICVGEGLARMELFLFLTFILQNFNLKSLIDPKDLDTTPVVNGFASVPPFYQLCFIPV

CYP2C9 = CYP2C9 (Homo sapiens, UniProt P11712); test: as above; settings: human, liver microsomes, pH 7.4, probe tolbutamide (100 microM), 2C9 Tolbut pIC50, human liver microsomes 0.2 mg/ml
Sequence of CYP2C9 (P11712 whole entry): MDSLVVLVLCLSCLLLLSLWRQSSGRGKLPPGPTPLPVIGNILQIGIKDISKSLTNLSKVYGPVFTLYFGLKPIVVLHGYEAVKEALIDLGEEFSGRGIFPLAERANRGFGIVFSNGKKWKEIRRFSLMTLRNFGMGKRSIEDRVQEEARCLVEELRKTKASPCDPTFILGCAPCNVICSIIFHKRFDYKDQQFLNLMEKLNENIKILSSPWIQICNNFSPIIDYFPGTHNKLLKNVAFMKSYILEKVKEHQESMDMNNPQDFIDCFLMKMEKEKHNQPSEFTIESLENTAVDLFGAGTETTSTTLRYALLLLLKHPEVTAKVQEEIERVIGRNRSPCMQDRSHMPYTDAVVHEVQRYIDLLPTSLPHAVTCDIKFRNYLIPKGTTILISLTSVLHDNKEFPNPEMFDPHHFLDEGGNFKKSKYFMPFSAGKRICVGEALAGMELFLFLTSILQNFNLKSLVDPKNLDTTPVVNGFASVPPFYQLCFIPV

Cytochrome P450 2C8 = molecular target: T2, Cytochrome P450 2C8 (Homo sapiens, UniProt P10632); test: as above; assay type: in vitro ADME; settings: human liver microsomes 0.2 mg/ml; probe amodiaquine 2 microM; read-out: 2C8_Amod pIC50 (converted)
T2 construct: tissue BD Gentest; host or cells: human liver microsomes
T2 sequence (P10632 1-490): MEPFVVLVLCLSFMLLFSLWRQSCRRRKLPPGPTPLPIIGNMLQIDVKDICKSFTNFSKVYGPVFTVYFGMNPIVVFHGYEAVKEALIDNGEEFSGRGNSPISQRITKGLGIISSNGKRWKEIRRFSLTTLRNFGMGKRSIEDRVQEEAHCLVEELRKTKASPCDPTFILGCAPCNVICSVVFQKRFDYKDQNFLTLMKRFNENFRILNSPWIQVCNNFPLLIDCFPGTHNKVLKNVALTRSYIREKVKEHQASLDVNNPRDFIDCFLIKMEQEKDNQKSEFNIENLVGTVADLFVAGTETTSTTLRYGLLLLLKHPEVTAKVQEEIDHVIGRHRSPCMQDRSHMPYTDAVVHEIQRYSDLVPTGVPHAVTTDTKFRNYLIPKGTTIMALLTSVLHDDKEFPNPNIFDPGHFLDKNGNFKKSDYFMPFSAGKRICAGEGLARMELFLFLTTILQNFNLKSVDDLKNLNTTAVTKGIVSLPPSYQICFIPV

CYP3A4/5 = CYP3A4/5 (Homo sapiens, UniProt P08684); test: in vitro; settings: liver microsomes, pH 7.4, probe midazolam (2 microM)
Sequence of CYP3A4/5 (P08684 2-503): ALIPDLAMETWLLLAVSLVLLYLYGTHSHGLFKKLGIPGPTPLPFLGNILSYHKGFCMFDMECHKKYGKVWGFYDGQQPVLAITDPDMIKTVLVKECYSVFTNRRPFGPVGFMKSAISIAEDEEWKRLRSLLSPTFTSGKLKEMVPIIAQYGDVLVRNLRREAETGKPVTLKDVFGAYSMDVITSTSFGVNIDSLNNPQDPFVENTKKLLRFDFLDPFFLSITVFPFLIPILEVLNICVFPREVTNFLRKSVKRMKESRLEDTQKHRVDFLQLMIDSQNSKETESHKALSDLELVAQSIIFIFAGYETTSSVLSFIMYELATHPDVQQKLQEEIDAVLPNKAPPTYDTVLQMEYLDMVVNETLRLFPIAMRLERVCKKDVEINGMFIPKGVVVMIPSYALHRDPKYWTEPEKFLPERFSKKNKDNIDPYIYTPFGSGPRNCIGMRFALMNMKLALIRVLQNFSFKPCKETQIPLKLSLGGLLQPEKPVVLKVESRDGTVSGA
Description: Probe substrates and final assay concentrations with the appropriate internal standard are outlined in Table 6a.
After a 10 min pre-incubation at 37° C., the reaction was started with addition of NADPH at a final concentration of 1.0 mM. […] The samples are centrifuged for 10 min at 4° C. at 4000 rpm and 60 microliters supernatant is diluted with 180 microliters water. Each sample is injected onto a UPLC/MS system for the simultaneous measurement of the probe substrate metabolites and their associated deuterated internal standards.
Percentage inhibition data are plotted against the Log transformed test compound concentration and after curve fitting the IC50-value is determined.

[1] = system: Sporothrix schenkii B62482; test: Antifungal activity in vitro (resazurin susceptibility screen), Inf. A; assay type: cell-based; settings: Sporothrix, B62482, Sporothrix schenkii B62482; 27 °C, 4 days, resa time 24 hours; highest in-test concentration 64 μM; read-out: Inf. A pIC50 (converted)
Procedure, shortened: (§1)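 First, serial dilutions of test compound are spotted onto plates, which may be stored dark at 4 °C for up to 2 weeks. Next, each well gets 10^3 cfu of fungus from cryopreserved stock diluted 1/1000 in medium. Untreated culture and RPMI-MOPS alone serve as plate controls.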

[2] = Liver metabolic stability assay, gpLM; assay type: in vitro ADME, guinea pig; settings: guinea pig microsomes, 1 mg protein/ml, 5 μM test compound, 15 min, 37 °C
[3] = system: Scedosporium prolificans IHEM21157; test: Antifungal activity in vitro (resazurin susceptibility screen), Inf. I; assay type: cell-based; settings: Lomentospora prolificans, 37 °C, 48 hours, resa time 17 hours, read-out: Inf. I pIC50 (converted)
Description: (§2) The standard susceptibility screen was performed in 96-well plates (U-bottom, Greiner Bio-One). […] These serial dilutions (10 n1) were then spotted onto test-plates that could be stored in the dark at 4° C. for a maximum period of 2 weeks. […] The different fungal species/isolates (Table 3a) were cryopreserved and 1/1000 diluted in medium just prior to use. A standard inoculum of 200 μl containing 10^3 colony-forming unit (cfu) was then added to each well. A positive control (100% growth=fungal culture without antifungal) and a negative control (0% growth ═RPMI-MOPS medium) were included on each plate. […] [table]

[4] = system: Cryptococcus neoformans B66663; test: Antifungal activity in vitro (resazurin susceptibility screen), Inf. F; assay type: cell-based; settings: Cryptococcus neoformans, B66663, Cryptococcus neoformans B66663; 37 °C, 24 hours, resa time 4 hours; read-out: Inf. F pIC50 (converted)
Procedure, shortened: as §1

[5] = system: Aspergillus fumigatus B42928; test: Antifungal activity in vitro (resazurin susceptibility screen), Inf. E; assay type: cell-based; settings: Aspergillus fumigatus B42928; 27 °C, 48 hours, resa time 17 hours; read-out: Inf. E pIC50 (converted)
Procedure, shortened: as §1

Rhizopus oryzae IHEM5223 = test: Antifungal activity in vitro (resazurin susceptibility screen), Inf. J; assay type: cell-based; settings: Rhizopus arrhizus, 37 °C, 24 hours, resa time 6 hours, read-out: Inf. J pIC50 (converted)
Description: as §2

[6] = system: Trichophyton mentagrophytes B70554; test: Antifungal activity in vitro (resazurin susceptibility screen), Inf. G; assay type: cell-based; settings: Trichophyton mentagrophytes, B70554, Trichophyton mentagrophytes B70554; 27 °C, 7 days, resa time 24 hours; read-out: Inf. G pIC50 (converted)
Procedure, shortened: (§3)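 Each well was inoculated with 10^3 cfu of fungus onto dried, pre-spotted compound serial dilutions in RPMI-MOPS medium, with fungal growth read by resazurin. Growth was referenced to drug-free culture (100%) and medium-only (0%) controls on each plate.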

[7] = system: Candida parapsilosis B66126; test: Antifungal activity in vitro (resazurin susceptibility screen), Inf. D; assay type: cell-based; settings: Lodderomyces parapsilosis; Candida parapsilosis B66126; 37 °C, 24 hours, resa time 4 hours; read-out: Inf. D pIC50 (converted)
Procedure, shortened: as §3

[8] = system: Rhizomucor miehei IHEM13391; test: Antifungal activity in vitro (resazurin susceptibility screen), Inf. K; assay type: cell-based; settings: 37 °C, 48 hours, resa time 17 hours, read-out: Inf. K pIC50 (converted)
Description: as §2

[9] = system: Trichophyton rubrum B68183; test: Antifungal activity in vitro (resazurin susceptibility screen), Inf. C; assay type: cell-based; settings: Trichophyton rubrum B68183; 27 °C, 7 days, resa time 24 hours; read-out: Inf. C pIC50 (converted)
Procedure, shortened: as §1

[10] = system: Scedosporium apiospermum IHEM3817; test: Antifungal activity in vitro (resazurin susceptibility screen), Inf. H; assay type: cell-based; settings: 37 °C, 48 hours, resa time 17 hours, read-out: Inf. H pIC50 (converted)
Description: as §2

[11] = system: Mucor circinelloides IHEM21105; test: Antifungal activity in vitro (resazurin susceptibility screen), Inf. L; assay type: cell-based; settings: 27 °C, 48 hours, resa time 17 hours, read-out: Inf. L pIC50 (converted)
Description: as §2

[12] = Liver metabolic stability assay, hLM; assay type: in vitro ADME, human; settings: human liver microsomes, 1 mg protein/ml, 5 μM test compound, 15 min, 37 °C
CYP1A2 = molecular target: T3, CYP1A2 (Homo sapiens, UniProt P05177); test: Human liver microsomal cytochrome P450 inhibition assay, Protocol B; assay type: in vitro ADME; settings: liver microsomes, pH 7.4, probe resorufin, at 30 μM
T3 sequence (P05177 1-516): T1 sequence (P05177 1-516)
Description: (§4) The samples are centrifuged for 10 min at 4° C. at 4000 rpm and the supernatant is analyzed. Analysis for CYP1A2 with resorufin was performed by fluorescence while the CY2D6 inhibition potential was assessed using LC-MS detection.

CYP2D6 = CYP2D6 (Homo sapiens, UniProt P10635); test: as above; assay type: in vitro ADME; settings: pH 7.4; at 30 μM; solvent condition B (0.30% DMSO+0.68% acetonitrile); human liver microsomes; probe dextromethorphan
Sequence of CYP2D6 (P10635 whole entry): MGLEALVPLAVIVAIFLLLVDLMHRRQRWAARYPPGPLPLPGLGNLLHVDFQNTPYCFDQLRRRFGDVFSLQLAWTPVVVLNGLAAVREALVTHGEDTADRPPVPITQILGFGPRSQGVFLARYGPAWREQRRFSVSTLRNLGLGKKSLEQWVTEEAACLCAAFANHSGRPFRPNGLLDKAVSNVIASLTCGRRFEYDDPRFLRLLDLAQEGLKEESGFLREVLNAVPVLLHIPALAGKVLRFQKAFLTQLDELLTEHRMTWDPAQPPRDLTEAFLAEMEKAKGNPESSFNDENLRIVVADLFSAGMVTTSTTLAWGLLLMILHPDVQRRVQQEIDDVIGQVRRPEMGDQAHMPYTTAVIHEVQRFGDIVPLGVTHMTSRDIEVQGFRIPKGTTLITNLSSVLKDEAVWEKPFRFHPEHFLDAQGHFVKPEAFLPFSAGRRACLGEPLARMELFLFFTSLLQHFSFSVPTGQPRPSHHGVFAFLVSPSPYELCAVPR
Description: as §4

Microsporum canis B68128 = test: Antifungal activity in vitro (resazurin susceptibility screen), Inf. B; assay type: cell-based; settings: Microsporum canis, B68128, Microsporum canis B68128; 27 °C, 9 days, resa time 24 hours; read-out: Inf. B pIC50 (converted)
Procedure, shortened: as §3

Sequence of Cytochrome P450 2D6 (P10635 whole entry): as above

## CCc1ccc(C2NCc3c(Cl)cccc3-n3cccc32)cc1 (centres unmarked)
Cytochrome P450 2D6
  IC50: 3.16 µM
Cytochrome P450 1A2
  IC50: > 10 µM
Cytochrome P450 2C19
  IC50: 1 µM
CYP2C9
  IC50 at 10 min: 10 µM
Cytochrome P450 2C8
  IC50: > 10 µM

## CCc1ccc(C2NCc3ccc(Cl)cc3-n3cccc32)cc1 (centres unmarked)
CYP3A4/5
  IC50 at 10 min: 6.31 µM
Cytochrome P450 2D6
  IC50: 3.98 µM
Cytochrome P450 1A2
  IC50: > 10 µM
Cytochrome P450 2C19
  IC50: 0.316 µM
CYP2C9
  IC50 at 10 min: 10 µM
Cytochrome P450 2C8
  IC50: > 10 µM

## CC(=O)c1ccc(C2=NCc3ccc(Cl)cc3-n3cccc32)cc1 [Compound 18, 1-[4-(9-chloro-6H-pyrrolo[1,2-a][1,4]benzodiazepin-4-yl)phenyl]-ethanone]
[1]
  IC50: 7.94 µM
[2]
  %-compound metabolised Met_gpLM: 36%
[3]
  IC50: 12.6 µM
[4]
  IC50: 1.58 µM
[5]
  IC50: 0.501 µM
other
  melting point: 114.4 to 115.7 °C
Rhizopus oryzae IHEM5223
  IC50: > 63.1 µM
[6]
  IC50: 1 µM
[7]
  IC50: 63.1 µM
[8]
  IC50: > 63.1 µM
[9]
  IC50: 0.316 µM
[10]
  IC50: 39.8 µM
[11]
  IC50: > 63.1 µM
[12]
  %-compound metabolised_Met_hLM: 17%
CYP1A2; solvent condition A (0.15% DMSO+[…] acetonitrile)
  inhibition at 10 min, 30 µM: 20 to 25%
CYP1A2; solvent condition B (0.30% DMSO+0.68% acetonitrile)
  inhibition at 10 min, 30 µM: 25 to 35%
CYP2D6
  inhibition at 10 min, 30 µM: 40 to 45%
Microsporum canis B68128
  IC50: 2 µM
